# Measured values taken from PMC8510601, “Discovery of benzamide-hydroxypyridinone hybrids as potent multi-targeting agents for the treatment of Alzheimer's disease” (Journal of Enzyme Inhibition and Medicinal Chemistry, 2021).
# Tests used:
# [1] = pKa determination by spectrophotometric titration; conditions: 0.1 M KCl aqueous solution, pH range 2.0–10.5, 25 °C
# [2] = Iron-chelating activity test: affinity constants for Fe3+ and pFe3+; conditions: for Log β2 / Log β3: KCl (0.1 M): DMSO = 3:2 (v/v); for Log β1: KCl (0.1 M): DMSO = 9:1 (v/v); for pFe^3+: pH 7.4, [Fe3+]total = 10^−6 M, [ligand]total = 10^−5 M, calculated from pKa and log β measured in KCl/DMSO
# MAO-B = target: T1, MAO-B (Homo sapiens, UniProt P27338); assay: Human MAO-B inhibition assay; format: biochemical; conditions: for inhibition at 0.1 µM: 100 nM, read-out: Inhibitory rate ± SEM (%, 100 nM); for inhibition at 1 µM: read-out: Inhibitory rate ± SEM (%, 1 μM); for IC50: ± SEM, read-out: IC50 against MAO-B
# T1 sequence (P27338 1-520): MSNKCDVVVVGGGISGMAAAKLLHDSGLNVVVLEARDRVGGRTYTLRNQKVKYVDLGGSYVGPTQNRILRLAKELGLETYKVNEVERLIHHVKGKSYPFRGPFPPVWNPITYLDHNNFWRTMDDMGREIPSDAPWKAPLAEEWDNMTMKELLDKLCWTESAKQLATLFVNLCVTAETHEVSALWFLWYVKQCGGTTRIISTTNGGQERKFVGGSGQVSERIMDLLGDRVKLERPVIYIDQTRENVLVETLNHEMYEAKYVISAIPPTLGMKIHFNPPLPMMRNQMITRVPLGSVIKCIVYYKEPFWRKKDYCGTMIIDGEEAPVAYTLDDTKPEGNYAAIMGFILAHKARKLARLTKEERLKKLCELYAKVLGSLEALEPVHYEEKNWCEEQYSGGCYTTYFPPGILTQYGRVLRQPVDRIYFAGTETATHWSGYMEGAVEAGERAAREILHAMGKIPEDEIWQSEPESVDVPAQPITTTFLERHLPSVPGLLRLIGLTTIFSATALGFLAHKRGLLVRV
SMILES,melting point,pKa ([1]; KCl (0.1 M)),"pKa ([1]; pKa2, KCl (0.1 M))",Log β2 [2],Log β3 [2],Log β1 [2],pFe^3+ [2],inhibition at 0.1 µM (MAO-B),inhibition at 1 µM (MAO-B),IC50 (MAO-B)
Cc1c(O)c(=O)ccn1CCNC(=O)c1ccccc1 [Compound 8a],211 to 213 °C,3.43,9.81,26.35,35.83,14.93,19.14,> 50%,77.65 ± 0.6%,79 ± 0.3 nM
COc1ccccc1C(=O)NCCn1ccc(=O)c(O)c1C [Compound 8b],–,3.41,9.88,26.20,35.45,14.64,18.56,38.8 ± 1.16%,59.9 ± 1.57%,–
COc1cccc(C(=O)NCCn2ccc(=O)c(O)c2C)c1 [Compound 8c],218 to 220 °C,3.37,9.83,26.17,35.55,14.68,18.80,31.9 ± 0.85%,59.97 ± 0.14%,–
COc1ccc(C(=O)NCCn2ccc(=O)c(O)c2C)cc1 [Compound 8d],241 to 243 °C,3.34,9.82,25.95,35.25,14.52,18.53,36.02 ± 0.15%,63 ± 3.9%,210.8 ± 1.21 nM
Cc1c(O)c(=O)ccn1CCNC(=O)c1ccccc1OCc1ccccc1 [Compound 8e],180 to 182 °C,3.38,9.99,26.46,35.64,14.66,18.43,33.1 ± 1.43%,51.5 ± 1.06%,–
Cc1c(O)c(=O)ccn1CCNC(=O)c1cccc(OCc2ccccc2)c1 [Compound 8f],178 to 180 °C,3.38,9.92,26.85,35.33,14.75,18.38,37.9 ± 1.22%,54.57 ± 0.51%,–
CCOc1ccc(C(=O)NCCn2ccc(=O)c(O)c2C)cc1 [Compound 8h],246 to 248 °C,3.27,9.8,26.06,35.33,14.67,18.67,48.1 ± 1.57%,66.75 ± 0.34%,119 ± 2.76 nM
CCCOc1ccc(C(=O)NCCn2ccc(=O)c(O)c2C)cc1 [Compound 8i],214 to 243 °C,3.41,9.84,25.98,35.18,14.56,18.40,> 50%,53.41 ± 0.31%,89.1 ± 10.1 nM
C#CCOc1ccc(C(=O)NCCn2ccc(=O)c(O)c2C)cc1 [Compound 8j],208 to 210 °C,3.41,9.88,26.14,35.24,14.67,18.35,38.7 ± 0.94%,58.6 ± 1.18%,–
Cc1c(O)c(=O)ccn1CCNC(=O)c1ccc(OCC2CCCCC2)cc1 [Compound 8k],274 to 276 °C,3.21,9.89,26.31,35.84,14.44,18.91,39.5 ± 2.38%,63.3 ± 0.92%,189 ± 7.51 nM
Cc1c(O)c(=O)ccn1CCNC(=O)c1ccc(OCc2cccc(F)c2)cc1 [Compound 8l],–,3.51,9.74,26.72,35.87,14.76,19.39,> 50%,> 80%,96.4 ± 6.78 nM
Cc1c(O)c(=O)ccn1CCNC(=O)c1ccc(OCc2ccc(F)cc2)cc1 [Compound 8m],254 to 256 °C,3.62,9.76,26.77,35.31,15.03,18.81,> 50%,70.9 ± 2.51%,82.8 ± 0.8 nM
Cc1c(O)c(=O)ccn1CCNC(=O)c1ccc(OCc2cccc(Cl)c2)cc1 [Compound 8n],236 to 238 °C,3.32,9.55,25.95,34.39,14.64,18.51,47.7 ± 6.06%,72.4 ± 3.26%,110.9 ± 1.1 nM
Cc1c(O)c(=O)ccn1CCNC(=O)c1ccc(OCc2ccc(Cl)cc2)cc1 [Compound 8o],–,3.33,9.63,26.09,34.55,14.43,18.44,48.5 ± 4.37%,63.6 ± 4.14%,139 ± 1.74 nM
Cc1c(O)c(=O)ccn1CCNC(=O)c1ccc(OCc2cc(F)ccc2F)cc1 [Compound 8p],236 to 238 °C,3.27,9.82,26.58,35.44,14.47,18.74,41.4 ± 2.45%,65.1 ± 1.47%,175 ± 6.73 nM
Cc1c(O)c(=O)ccn1CCNC(=O)c1ccc(OCc2cc(F)cc(F)c2)cc1 [Compound 8q],–,3.27,9.82,26.63,35.73,14.61,19.01,49.7 ± 4.22%,63.9 ± 0.67%,93.8 ± 6.48 nM
Cc1c(O)c(=O)ccn1CCNC(=O)c1ccc(OCc2ccc(C(F)(F)F)cc2)cc1 [Compound 8r],268 to 270 °C,3.25,9.78,26.01,34.98,14.48,18.39,46.5 ± 6.99%,63.4 ± 4.06%,187.7 ± 0.42 nM
Cc1cccc(COc2ccc(C(=O)NCCn3ccc(=O)c(O)c3C)cc2)c1 [Compound 8s],–,3.31,9.86,26.67,35.67,14.67,18.85,49.3 ± 2.58%,71.3 ± 1.02%,122.3 ± 0.21 nM
Cc1ccc(COc2ccc(C(=O)NCCn3ccc(=O)c(O)c3C)cc2)cc1 [Compound 8t],245 to 247 °C,3.12,9.93,26.42,35.19,14.45,18.18,45.1 ± 1.62%,64.1 ± 0.82%,118 ± 4.24 nM
Cc1c(O)c(=O)ccn1CCNC(=O)c1ccc(OCc2ccc(C(C)C)cc2)cc1 [Compound 8u],247 to 249 °C,3.33,9.58,25.58,35.36,14.67,19.35,41.5 ± 1.94%,62.92 ± 0.51%,128 ± 3.96 nM
Cc1c(O)c(=O)ccn1CCNC(=O)c1ccc(OCc2ccc(C(C)(C)C)cc2)cc1 [Compound 8v],245 to 247 °C,3.29,9.56,25.51,35.20,14.69,19.25,48.9 ± 1.93%,64.2 ± 1.94%,124 ± 1.32 nM
Cc1c(O)c(=O)ccn1CCNC(=O)c1ccccc1O [Compound 8w],156 to 158 °C,3.47,9.68,25.69,34.63,14.45,18.34,44.38 ± 0.23%,56.43 ± 0.24%,121.5 ± 0.86 nM
Cc1c(O)c(=O)ccn1CCNC(=O)c1cccc(O)c1 [Compound 8x],144 to 146 °C,3.28,9.75,25.93,34.96,14.67,18.46,43.63 ± 0.34%,55.75 ± 0.03%,121 ± 1.94 nM
Cc1c(O)c(=O)ccn1CCNC(=O)c1ccc(O)cc1 [Compound 8y],163 to 165 °C,3.33,9.95,26.07,35.42,14.61,18.31,37.6 ± 1.01%,55.3 ± 1.91%,–
